Measurements from the NIST ThermoML archive (doi:10.1021/je0342668).

Assay: molar heat capacity at constant pressure; xn = mol fraction of the nth substance listed
Settings: Liquid, x2 = 0.568

CCCO [propan-1-ol] + O
Settings	molar heat capacity at constant pressure [J/K/mol]
262.42 K	106.61
264.63 K	107.35
266.82 K	108.31
269.02 K	109.17
271.19 K	109.88
273.35 K	110.58
275.5 K	111.1
277.64 K	111.89
279.76 K	112.63
281.87 K	113.37
283.94 K	114.17
286 K	114.78
288.06 K	115.38
290.08 K	116.09
292.07 K	116.6
294.06 K	117.18
296.02 K	117.95
298.02 K	118.53
300.05 K	119.17
302.07 K	119.94
304.12 K	120.61
306.15 K	121.22
308.18 K	121.92
310.21 K	122.56
312.24 K	123
314.26 K	123.59
316.27 K	124.29
318.28 K	124.81
